Source: patent US11493451B2, “Colorimetric drug test strip using porous support material” (Palo Alto Research Center Incorporated, priority 2019, dated 2022)
Read-outs that look alike come from different tables or passages of the source.

Experiments:
[1] = Methamphetamine disposition in oral fluid and plasma (Huestis et al.)
Description: (§1) While pharmacokinetic profile is specific to each individual drug, there are multiple challenges with immunoassay-based roadside drug testing. Current hand-held immunoassays drug testing devices from saliva detect the metabolites of the drugs in question. One challenge with metabolite testing is that depending on the drug and on the mode of administration, there may be delays in the detectability of the drug from the time of ingestion to the test time. For example, in the case of methylenedioxy-methamphetamine (MDMA) detection, the time to maximum concentration of (tmax) of MDMA is 2.8 hours, while for its main metabolite, methylenedioxyamphetamine (MDA), the tmax increases to 4.8 hours. […] This makes metabolite detection very challenging.

[2] = MA (20 mg), cited from earlier work; for Concentration in Saliva: maximum concentration in oral fluid
[3] = Cocaine and metabolites in human oral fluid and plasma following controlled administration (Scheidweiler et al.)
Description: as §1

[4] = Cocaine (75 mg subcutaneous), cited from earlier work
[5] = Oral fluid and plasma MDMA and metabolite after controlled oral MDMA administration (Desrosiers et al.); assay type: in vivo, human; conditions: MDMA (75 mg); for Kp: human, saliva (oral fluid) / plasma, read-out: Ratio Saliva/Blood
Description: This makes metabolite detection very challenging.

[6] = MDMA (75 mg), oral, cited from earlier work; for Concentration in Saliva: maximum concentration in oral fluid
[7] = after MDMA; cited from earlier work
[8] = THC and metabolite concentrations in oral fluid and whole blood after smoking a cannabis joint (Fabritius et al.)
Description: as §1

[9] = cited from earlier work; for Cmax in blood or plasma / Concentration in Saliva: THC (40 mg); for Concentration in Saliva: maximum concentration in oral fluid
[10] = cited from earlier work
[11] = Cocaine (75 mg subcutaneous), cocaine vs BE + EME

CN[C@@H](C)Cc1ccccc1 [MA, methamphetamine]
Ratio Parent:Metabolite, Cmax in blood or plasma ([1]; MA (20 mg), MA vs A): 5.3 | Ratio Parent:Metabolite, concentration in saliva ([1]; MA (20 mg), MA vs A): 13.7 | Kp ([1]; human, saliva (oral fluid) / plasma, 20 mg): 6 | Cmax in blood or plasma [2]: 32 ng/mL | Concentration in Saliva [2]: 192 ng/mL

COC(=O)[C@H]1[C@@H](OC(=O)c2ccccc2)C[C@@H]2CC[C@H]1N2C [Cocaine, cocaine]
Ratio Parent:Metabolite, Cmax in blood or plasma [3, 11]: 0.8 | Ratio Parent:Metabolite, concentration in saliva [3, 11]: 4.1 | Kp ([3]; human, saliva (oral fluid) / plasma, sc, 75 mg): 3.6 | Cmax in blood or plasma [4]: 305 ng/mL | Concentration in Saliva ([4]; maximum concentration in oral fluid): 1092 ng/mL

CC(N)Cc1ccccc1 (stereo not drawn) [A]
Concentration in Saliva [2]: 14 ng/mL

CNC(C)Cc1ccc2c(c1)OCO2 (stereo not drawn) [MDMA, methylenedioxy-methamphetamine]
Ratio Parent:Metabolite, concentration in saliva ([5]; MDMA vs MDA): 40 | Kp [5]: 11 | Cmax in blood or plasma [6]: 150 ng/mL | Concentration in Saliva [6]: 1643 ng/mL | time to maximum concentration (tmax) [7]: 2.8 h

CC(N)Cc1ccc2c(c1)OCO2 (stereo not drawn) [MDA, methylenedioxyamphetamine]
Kp [5]: 5.8 | Cmax in blood or plasma [6]: 7 ng/mL | Concentration in Saliva [6]: 41 ng/mL | time to maximum concentration (tmax) [7]: 4.8 h

CCCCCc1cc(O)c2c(c1)OC(C)(C)[C@@H]1CCC(C)=C[C@@H]21 [THC, Δ9-tetrahydrocannabinol]
Ratio Parent:Metabolite, Cmax in blood or plasma ([8]; THC (40 mg), THC vs THC-COOH): 2.1 | Ratio Parent:Metabolite, concentration in saliva ([8]; THC (40 mg), THC vs THC-COOH): 2120 | Kp ([8]; human, saliva (oral fluid) / whole blood, inhaled, 40 mg): 7.3 | Cmax in blood or plasma [9]: 87 ng/mL | Concentration in Saliva [9]: 636 ng/mL | THC concentration in saliva relative to main metabolite THC-COOH (times higher) ([9]; in one study, saliva): ~2000 × | time over which saliva THC concentration decreases slowly after consumption ([10]; THC ingested from food, saliva): about 24 hours | THC concentration in saliva after being ingested from food versus same amount of smoked THC ([10]; first 15 minutes, saliva): about ten times lower | rapid decay after maximum concentration ([10]; smoked or vaped THC): 1 to 2 h | time to peak effect and maximum concentration ([10]; smoked or vaped THC): seconds or minutes

CCCCCc1cc(O)c2c(c1)OC(C)(C)[C@@H]1CCC(C(=O)O)=C[C@@H]21 [THC-COOH]
Ratio Saliva/Blood ([8]; THC (40 mg)): 0.007 | Cmax in blood or plasma [9]: 41 ng/mL | Concentration in Saliva [9]: 0.3 ng/mL
